The values that follow come from patent publication US11912693B2, “Compounds for modulating S1P1 activity and methods of using the same” (TREVENA, INC., priority 2017, dated 2024).

Assay [1] deals with T1, human sphingosine-1-phosphate receptor 1 (S1P1) (Homo sapiens (Human), UniProt P21453). Kind of assay: Inhibition of cAMP production (HTRF cAMP HiRange), S1P1 CHO-K1 cells. The class given is cell-based. The following applies: for Emax: CHO-K1, efficacy (SPAN) normalized to fingolimod, read-out: hS1P1 cAMP SPAN; for hS1P1 cAMP pEC50: inhibition of cAMP production, S1P1 CHO-K1 cells. Summed up:
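CHO-K1 cells stably co-expressing human S1P1 (C-terminal Prolink tag) and EA-β-arrestin2 were grown in AssayComplete Media 6 at 37° C. and 5% CO2, plated, and incubated overnight. Agonist-driven inhibition of intracellular cAMP was read by TR-FRET with the HTRF cAMP HiRange kit on a PheraStar reader. Potency is pEC50, and efficacy (SPAN) is normalized to fingolimod.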
Background: Changes in cAMP serve as a functional read-out for many G protein-coupled receptors.
Target sequence in this assay (P21453 whole entry, looked up): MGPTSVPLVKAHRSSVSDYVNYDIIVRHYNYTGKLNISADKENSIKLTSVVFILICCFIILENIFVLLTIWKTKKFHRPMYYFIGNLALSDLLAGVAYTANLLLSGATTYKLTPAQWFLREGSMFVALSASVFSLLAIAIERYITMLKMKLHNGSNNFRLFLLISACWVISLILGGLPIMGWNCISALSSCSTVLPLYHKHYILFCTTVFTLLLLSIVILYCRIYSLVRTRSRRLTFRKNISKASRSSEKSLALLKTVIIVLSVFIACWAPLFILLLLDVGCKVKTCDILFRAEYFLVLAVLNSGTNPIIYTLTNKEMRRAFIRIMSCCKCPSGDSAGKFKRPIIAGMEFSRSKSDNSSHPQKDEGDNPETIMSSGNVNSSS

Assay [2] concerns the target T1, human sphingosine-1-phosphate receptor 1 (S1P1). Kind of assay: β-Arrestin2 recruitment assay (PathHunter), S1P1 CHO-K1 cells. The class given is cell-based. The following applies: for Emax: CHO-K1, efficacy (SPAN) normalized to fingolimod, read-out: hS1P1 B-arrestin2 SPAN; for hS1P1 B-arrestin2 pEC50: β-arrestin2 recruitment, S1P1 CHO-K1 cells. Summed up: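 Enzyme-fragment complementation read-out: agonist-driven β-arrestin2 binding to ProLink-tagged human S1P1 in stable CHO-K1 cells restores β-galactosidase, measured 1 h at room temperature after a 60 min 37° C. compound incubation. Potency as pEC50, efficacy relative to fingolimod (SPAN).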
Target sequence in this assay (P21453 whole entry, looked up): as above
Target sequence in this assay (P32121 whole entry partner, looked up): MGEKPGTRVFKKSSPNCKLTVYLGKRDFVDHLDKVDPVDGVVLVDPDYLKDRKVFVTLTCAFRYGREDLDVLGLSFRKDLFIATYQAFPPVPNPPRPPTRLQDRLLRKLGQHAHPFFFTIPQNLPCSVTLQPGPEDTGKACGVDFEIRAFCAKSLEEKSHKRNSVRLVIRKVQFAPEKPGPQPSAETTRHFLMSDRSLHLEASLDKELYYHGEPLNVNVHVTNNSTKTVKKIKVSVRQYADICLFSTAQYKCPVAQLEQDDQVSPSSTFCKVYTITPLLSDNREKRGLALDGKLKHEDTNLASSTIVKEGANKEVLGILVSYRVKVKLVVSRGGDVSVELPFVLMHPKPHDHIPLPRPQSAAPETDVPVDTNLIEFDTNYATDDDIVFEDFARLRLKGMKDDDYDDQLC
(Arrestin recruitment assays detect the binding of arrestin to an activated receptor.)

Where only a bound is given, the exact number is not on record here.

For `COC(=O)NS(=O)(=O)n1c(=O)oc2cc(-c3nnc(-c4ccccc4OC)o3)ccc21` [Compound 342, methyl N-({6-[5-(2-methoxyphenyl)-1,3,4-oxadiazol-2-yl]-2-oxo-2,3-dihydro-1,3-benzoxazol-3-yl}sulfonyl)carbamate], in assay [1], the Emax is below 75% and the “hS1P1 cAMP pEC50” value is given as below 6.5. Also, in assay [2], the Emax is below 75% and the “hS1P1 B-arrestin2 pEC50” value is below 5.
With `N#Cc1cc(-c2nc(-c3ccc4c(c3)CCC(=O)N4)no2)ccc1NCCF` [Compound 343, 2-[(2-fluoroethyl)amino]-5-[3-(2-oxo-1,2,3,4-tetrahydroquinolin-6-yl)-1,2,4-oxadiazol-5-yl]benzonitrile], in assay [1], the Emax was above 75% and the “hS1P1 cAMP pEC50” value is above 6.5. Besides, in assay [2], the Emax was above 75% and the “hS1P1 B-arrestin2 pEC50” value is above 5.
For `N#Cc1cc(-c2nc(-c3ccc4c(c3)CCC(=O)N4)no2)ccc1NCC(F)F` [Compound 344, 2-[(2,2-difluoroethyl)amino]-5-[3-(2-oxo-1,2,3,4-tetrahydroquinolin-6-yl)-1,2,4-oxadiazol-5-yl]benzonitrile], in assay [1], the Emax is above 75% and the “hS1P1 cAMP pEC50” value is above 6.5. Moreover, in assay [2], the Emax was above 75% and the “hS1P1 B-arrestin2 pEC50” value is listed as above 5.
On to `N#Cc1cc(-c2nc(-c3ccc4c(c3)CCC(=O)N4)no2)ccc1N` [Compound 345, 2-amino-5-[3-(2-oxo-1,2,3,4-tetrahydroquinolin-6-yl)-1,2,4-oxadiazol-5-yl]benzonitrile], for which, in assay [1], the Emax is below 75% and the “hS1P1 cAMP pEC50” value is recorded as below 6.5. Also, in assay [2], the Emax is below 75% and the “hS1P1 B-arrestin2 pEC50” value is on record as below 5.
For the compound `C=C(F)CNc1ccc(-c2nc(-c3ccc4c(c3)CCC(=O)N4)no2)cc1C#N` [Compound 346, 2-[(2-fluoroprop-2-en-1-yl)amino]-5-[3-(2-oxo-1,2,3,4-tetrahydroquinolin-6-yl)-1,2,4-oxadiazol-5-yl]benzonitrile], in assay [1], the Emax is above 75% and the “hS1P1 cAMP pEC50” value is above 6.5. Further, in assay [2], the Emax was above 75% and the “hS1P1 B-arrestin2 pEC50” value is on record as above 5.
With `CC(F)(F)CNc1ccc(-c2nc(-c3ccc4c(c3)CCC(=O)N4)no2)cc1C#N` [Compound 347, 2-[(2,2-difluoropropyl)amino]-5-[3-(2-oxo-1,2,3,4-tetrahydroquinolin-6-yl)-1,2,4-oxadiazol-5-yl]benzonitrile], in assay [1], the Emax was above 75% and the “hS1P1 cAMP pEC50” value is reported as above 6.5. In addition, in assay [2], the Emax is above 75% and the “hS1P1 B-arrestin2 pEC50” value is on record as above 5.
On to `COc1ccccc1-c1nnc(-c2ccc3[nH]c(=O)oc3c2)o1` [Compound 349, 6-[5-(2-methoxyphenyl)-1,3,4-oxadiazol-2-yl]-2,3-dihydro-1,3-benzoxazol-2-one], for which, in assay [1], the Emax is below 75% and the “hS1P1 cAMP pEC50” value is above 6.5. For the same compound, in assay [2], the Emax was below 75% and the “hS1P1 B-arrestin2 pEC50” value is below 5.
On to `COc1ccccc1-c1nnc(-c2ccc3c(c2)oc(=O)n3C)o1` [Compound 350, 6-[5-(2-methoxyphenyl)-1,3,4-oxadiazol-2-yl]-3-methyl-2,3-dihydro-1,3-benzoxazol-2-one], for which, in assay [1], the Emax is below 75% and the “hS1P1 cAMP pEC50” value is recorded as below 6.5. In assay [2], the Emax was below 75% and the “hS1P1 B-arrestin2 pEC50” value is below 5.
Regarding `CC(C)Nc1ccc(-c2nnc(-c3ccc4[nH]ncc4c3)o2)cc1C#N` [Compound 351, 5-[5-(1H-indazol-5-yl)-1,3,4-oxadiazol-2-yl]-2-[(propan-2-yl)amino]benzonitrile], in assay [1], the Emax is above 75% and the “hS1P1 cAMP pEC50” value was above 6.5. Besides, in assay [2], the Emax is above 75% and the “hS1P1 B-arrestin2 pEC50” value was above 5.
Regarding `N#Cc1cc(-c2nnc(-c3ccc4[nH]ncc4c3)o2)ccc1NCC1CC1` [Compound 352, 2-[(cyclopropylmethyl)amino]-5-[5-(1H-indazol-5-yl)-1,3,4-oxadiazol-2-yl]benzonitrile], in assay [1], the Emax was above 75% and the “hS1P1 cAMP pEC50” value is listed as above 6.5. In addition, in assay [2], the Emax is above 75% and the “hS1P1 B-arrestin2 pEC50” value was above 5.
For `N#Cc1cc(-c2nnc(-c3ccc4[nH]ncc4c3)o2)ccc1NCCF` [Compound 353, 2-[(2-fluoroethyl)amino]-5-[5-(1H-indazol-5-yl)-1,3,4-oxadiazol-2-yl]benzonitrile], in assay [1], the Emax was above 75% and the “hS1P1 cAMP pEC50” value was above 6.5. Moreover, in assay [2], the Emax was above 75% and the “hS1P1 B-arrestin2 pEC50” value is reported as above 5.
Consider `N#Cc1cc(-c2nnc(-c3ccc4[nH]cnc4c3)o2)ccc1NCC1CC1` [Compound 357, 5-[5-(1H-1,3-benzodiazol-5-yl)-1,3,4-oxadiazol-2-yl]-2-[(cyclopropylmethyl)amino]benzonitrile], for which, in assay [1], the Emax is above 75% and the “hS1P1 cAMP pEC50” value is reported as above 6.5. In assay [2], the Emax is above 75% and the “hS1P1 B-arrestin2 pEC50” value was above 5.
Consider `Cc1nc(-c2ccccc2)oc1-c1cnc2c(c1)CC(=O)N2` [Compound 360, 5-(4-methyl-2-phenyl-1,3-oxazol-5-yl)-1H,2H,3H-pyrrolo[2,3-b]pyridin-2-one], for which, in assay [1], the “hS1P1 cAMP pEC50” value is below 6.5. Moreover, the “hS1P1 B-arrestin2 pEC50” value in assay [2] is recorded as below 5.
The corresponding values for `Cc1ccccc1-c1noc(-c2ccc3scnc3c2)n1` [Compound 362, 5-[3-(2-methylphenyl)-1,2,4-oxadiazol-5-yl]-1,3-benzothiazole] are below 6.5 and below 5.
As for `COc1ccc(-c2nsc(-c3ccc4[nH]ccc4c3)n2)cc1` [Compound 363, 5-[3-(4-methoxyphenyl)-1,2,4-thiadiazol-5-yl]-1H-indole], the “hS1P1 cAMP pEC50” value in assay [1] is on record as below 6.5. Besides, in assay [2], the “hS1P1 B-arrestin2 pEC50” value was below 5.
`COc1cccc(-c2nc(-c3ccc4[nH]ccc4c3)ns2)c1` [Compound 364, 5-[5-(3-methoxyphenyl)-1,2,4-thiadiazol-3-yl]-1H-indole]: the “hS1P1 cAMP pEC50” value in assay [1] is recorded as below 6.5. The “hS1P1 B-arrestin2 pEC50” value in assay [2] is reported as below 5.
The corresponding values for `Cc1ccccc1-c1noc(-c2ccc3c(c2)CCC(=O)N3)n1` [Compound 365, 6-[3-(2-methylphenyl)-1,2,4-oxadiazol-5-yl]-1,2,3,4-tetrahydroquinolin-2-one] are below 6.5 and above 5.
The corresponding values for `COc1cccc(-c2nc(-c3ccc4c(ccn4C(C)C)c3)ns2)c1` [Compound 366, 5-[5-(3-methoxyphenyl)-1,2,4-thiadiazol-3-yl]-1-(propan-2-yl)-1H-indole] are below 6.5 and below 5.
The corresponding values for `Cc1ccccc1-c1noc(-c2ccc3c(c2)CCC(=O)N3C)n1` [Compound 367, 1-methyl-6-[3-(2-methylphenyl)-1,2,4-oxadiazol-5-yl]-1,2,3,4-tetrahydroquinolin-2-one] are below 6.5 and below 5.
Turning to `COc1ccccc1-c1noc(-c2ccc3[nH]ccc3c2)n1` [Compound 368, 5-(1H-indol-5-yl)-3-(2-methoxyphenyl)-1,2,4-oxadiazole], the “hS1P1 cAMP pEC50” value in assay [1] is on record as below 6.5. For the same compound, in assay [2], the “hS1P1 B-arrestin2 pEC50” value is on record as below 5.
The corresponding values for `COc1ccccc1-c1noc(-c2ccc3[nH]cnc3c2)n1` [Compound 369, 5-(1H-benzo[d]imidazol-5-yl)-3-(2-methoxyphenyl)-1,2,4-oxadiazole] are below 6.5 and below 5.
